The results in this text go back to patent publication US20190119251A1, “AMIDE-SUBSTITUTED ARYLTRIAZOLE DERIVATIVES AND USES THEREOF” (BAYER PHARMA AKTIENGESELLSCHAFT, priority 2016, published 2019).

For orientation: IC50 means the point on the concentration scale where inhibition reaches its midpoint.

The structures appear in SMILES notation.

Assay [1] has as its target T1, human V1a receptor (Homo sapiens, UniProt P37288).
T1 construct: expressed in transfected cells; host or cells: CHO K1 (Chinese hamster ovary), also stably transfected with modified aequorin
Put plainly: Cellular in vitro assay for determining vasopressin receptor activity (V1a cell line, aequorin luminescence). Type of assay: cell-based. Particulars: for IC50: CHO cell line transfected with the human V1a receptor, agonist [Arg8]-vasopressin at EC50 concentration, read-out: IC50 hV1a; for ratio IC50 hV2/hV1a: ratio of cellular IC50 values, human V2 over human V1a. As to the method:
(§1) B-1. Cellular In Vitro Assay for Determining Vasopressin Receptor Activity
(§2) The identification of agonists and antagonists of the V 1 a and V2 vasopressin receptors from humans, rats and dogs as well as the quantification of the activity of the compounds of the invention is carried out using recombinant cell lines. These cell lines originally derive from a hamster's ovary epithelial cell (Chinese Hamster Ovary, CHO K1, ATCC: American Type Culture Collection, Manassas, Va. 20108, USA). The test cell lines constitutively express the human, rat or dog
(§3) V1 a or V2 receptors. In case of the Gag-coupled V 1 a receptors, cells are also stably transfected with a modified form of the calcium-sensitive photoproteins aequorin (human and rat V1a) or obelin (dog V 1 a), which, after reconstitution with the cofactor coelenterazine, emit light when there are increases in free calcium concentrations [Rizzuto R, Simpson A W, Brini M, Pozzan T, Nature 358, 325-327 (1992); Illarionov B A, Bondar V S, Illarionova V A, Vysotski E S, Gene 153 (2), 273-274 (1995)]. The resulting vasopressin receptor cells react to stimulation of the recombinantly expressed V 1 a receptors by intracellular release of calcium ions, which can be quantified by the resulting photoprotein luminescence. The Gs-coupled V2 receptors are stably transfected into cell lines expressing the gene for firefly luciferase under control of a CRE-responsible promoter. Activation of V2 receptors induces the activation of the CRE-responsive promoter via cAMP increase, thereby inducing the expression of firefly luciferase. The light emitted by photoproteins of V1a cell lines as well as the light emitted by firefly luciferase of V2 cell lines corresponds to the activation or inhibition of the respective vasopressin receptor. The bioluminescence of the cell lines is detected using a suitable luminometer [Milligan G, Marshall F, Rees S, Trends in Pharmacological Sciences 17, 235-237 (1996)].
Vasopressin V1a Receptor Cell Lines:
On the day before the assay, the cells are plated out in culture medium (DMEM/F12, 2% FCS, 2 mM glutamine, 10 mM HEPES, 5 μg/ml coelenterazine) in 384-well microtiter plates and kept in a cell incubator (96% humidity, 5% v/v CO2, 37° C.). On the day of the assay, test compounds in various concentrations are placed for 10 minutes in the wells of the microtiter plate before the agonist [Arg^8]-vasopressin at EC50 concentration is added. The resulting light signal is measured immediately in a luminometer.
(§4) Table 1A below lists individual IC50 values for the compounds of the invention (including racemic mixtures as well as separated enantiomers) that were obtained from cell lines transfected with the human V1a or V2 receptor: […]

Assay [2] addresses T2, human V2 receptor (Homo sapiens, UniProt P30518).
T2 construct: expressed in transfected cells; host or cells: CHO K1 (Chinese hamster ovary) expressing firefly luciferase under a CRE-responsive promoter
In words: Cellular in vitro assay for determining vasopressin receptor activity (V2 cell line, CRE-luciferase). Particulars: CHO cell line transfected with the human V2 receptor; agonist [Arg8]-vasopressin at EC50 concentration; 3 hours incubation; read-out: IC50 hV2. The format is cell-based. As to the method: as §1, §2, §3
Vasopressin V2 Receptor Cell Lines:
On the day before the assay, the cells are plated out in culture medium (DMEM/F12, 2% FCS, 2 mM glutamine, 10 mM HEPES) in 384-well microtiter plates and kept in a cell incubator (96% humidity, 5% v/v CO2, 37° C.). On the day of the assay, test compounds in various concentrations and the agonist [Arg^8]-vasopressin at EC50 concentration are added together to the wells, and plates are incubated for 3 hours in a cell incubator. Upon addition of the cell lysis reagent Triton™ and the substrate luciferin, luminescence of firefly luciferase is measured in a luminometer.
as §4

T2 sequence (P30518 whole entry): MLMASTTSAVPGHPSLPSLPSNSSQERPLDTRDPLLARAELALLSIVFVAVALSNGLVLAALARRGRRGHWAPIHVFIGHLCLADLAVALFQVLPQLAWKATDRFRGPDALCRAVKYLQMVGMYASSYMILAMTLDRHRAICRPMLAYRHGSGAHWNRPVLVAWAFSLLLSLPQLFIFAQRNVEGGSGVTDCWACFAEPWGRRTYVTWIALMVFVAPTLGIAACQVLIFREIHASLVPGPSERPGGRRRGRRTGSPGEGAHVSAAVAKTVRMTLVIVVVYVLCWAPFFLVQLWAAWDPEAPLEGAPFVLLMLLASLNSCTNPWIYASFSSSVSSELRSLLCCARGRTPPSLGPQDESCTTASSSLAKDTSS
T1 sequence (P37288 whole entry): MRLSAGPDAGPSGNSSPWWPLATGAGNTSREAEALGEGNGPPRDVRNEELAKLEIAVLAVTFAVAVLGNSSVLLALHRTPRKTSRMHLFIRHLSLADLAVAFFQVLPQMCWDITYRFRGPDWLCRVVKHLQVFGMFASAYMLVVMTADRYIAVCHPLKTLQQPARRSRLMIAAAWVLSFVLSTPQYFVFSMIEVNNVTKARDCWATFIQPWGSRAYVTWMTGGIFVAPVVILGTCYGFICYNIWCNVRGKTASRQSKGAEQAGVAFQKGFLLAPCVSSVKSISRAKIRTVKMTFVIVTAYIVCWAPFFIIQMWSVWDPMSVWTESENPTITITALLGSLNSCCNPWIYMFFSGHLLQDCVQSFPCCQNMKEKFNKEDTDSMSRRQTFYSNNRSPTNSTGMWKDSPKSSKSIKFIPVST

Take `NC(=O)c1nc(Cn2nc(-c3ccc(Cl)cc3)n(C[C@H](O)C(F)(F)F)c2=O)nn1-c1ccccc1[N+](=O)[O-]` [Example 24, 3-({3-(4-Chlorophenyl)-5-oxo-4-[(2S)-3,3,3-trifluoro-2-hydroxypropyl]-4,5-dihydro-1H-1,2,4-triazol-1-yl}methyl)-1-(2-nitrophenyl)-1H-1,2,4-triazole-5-carboxamide]: in assay [1], the IC50 stood at 2.6 nM and the “ratio IC50 hV2/hV1a” value came out at 11.7. In addition, in assay [2], the IC50 came to 30.5 nM.
The like results for `NC(=O)c1nc(Cn2nc(-c3ccc(Cl)cc3)n(C[C@H](O)C(F)(F)F)c2=O)nn1-c1c(F)cccc1F` [Example 25, 3-({3-(4-Chlorophenyl)-5-oxo-4-[(2S)-3,3,3-trifluoro-2-hydroxypropyl]-4,5-dihydro-1H-1,2,4-triazol-1-yl}methyl)-1-(2,6-difluorophenyl)-1H-1,2,4-triazole-5-carboxamide] were, in that order, 2.95 nM, 2.2 and 6.45 nM.
For `NC(=O)c1nc(Cn2nc(-c3ccc(Cl)cc3)n(C[C@H](O)C(F)(F)F)c2=O)nn1-c1ccc(F)cc1Cl` [Example 26, 1-(2-Chloro-4-fluorophenyl)-3-({3-(4-chlorophenyl)-5-oxo-4-[(2S)-3,3,3-trifluoro-2-hydroxypropyl]-4,5-dihydro-1H-1,2,4-triazol-1-yl}methyl)-1H-1,2,4-triazole-5-carboxamide] the same measures were 3.5 nM, 4.9 and 17 nM.
The like results for `NC(=O)c1nc(Cn2nc(-c3ccc(Cl)cc3)n(C[C@H](O)C(F)(F)F)c2=O)nn1-c1ccccc1OC(F)F` [Example 27, 3-({3-(4-Chlorophenyl)-5-oxo-4-[(2S)-3,3,3-trifluoro-2-hydroxypropyl]-4,5-dihydro-1H-1,2,4-triazol-1-yl}methyl)-1-[2-(difluoromethoxy)phenyl]-1H-1,2,4-triazole-5-carboxamide] were, in that order, 4.5 nM, 9.3 and 41.7 nM.
Turning to `CC(C)c1ccccc1-n1nc(Cn2nc(-c3ccc(Cl)cc3)n(C[C@H](O)C(F)(F)F)c2=O)nc1C(N)=O` [Example 28, 3-({3-(4-Chlorophenyl)-5-oxo-4-[(2S)-3,3,3-trifluoro-2-hydroxypropyl]-4,5-dihydro-1H-1,2,4-triazol-1-yl}methyl)-1-(2-isopropylphenyl)-1H-1,2,4-triazole-5-carboxamide], in assay [1], the IC50 was found to be 4.85 nM and the “ratio IC50 hV2/hV1a” value is 13.3. Besides, the IC50 in assay [2] was found to be 64.5 nM.
Take `NC(=O)c1nc(Cn2nc(-c3ccc(Cl)cc3)n(C[C@H](O)C(F)(F)F)c2=O)nn1-c1ccccc1F` [Example 29, 3-({3-(4-Chlorophenyl)-5-oxo-4-[(2S)-3,3,3-trifluoro-2-hydroxypropyl]-4,5-dihydro-1H-1,2,4-triazol-1-yl}methyl)-1-(2-fluorophenyl)-1H-1,2,4-triazole-5-carboxamide]: in assay [1], the IC50 stood at 13.3 nM and the “ratio IC50 hV2/hV1a” value was 1.8. For the same compound, the IC50 in assay [2] was 24.1 nM.
As to `NC(=O)c1nc(Cn2nc(-c3ccc(Cl)cc3)n(C[C@H](O)C(F)(F)F)c2=O)nn1-c1ccccc1` [Example 30, 3-({3-(4-Chlorophenyl)-5-oxo-4-[(2S)-3,3,3-trifluoro-2-hydroxypropyl]-4,5-dihydro-1H-1,2,4-triazol-1-yl}methyl)-1-phenyl-1H-1,2,4-triazole-5-carboxamide], in assay [1], the IC50 is 14 nM and the “ratio IC50 hV2/hV1a” value came out at 0.7. Moreover, the IC50 in assay [2] is 9.75 nM.
Take `CCc1cccc(C)c1-n1nc(Cn2nc(-c3ccc(Cl)cc3)n(C[C@H](O)C(F)(F)F)c2=O)nc1C(N)=O` [Example 31, 3-({3-(4-Chlorophenyl)-5-oxo-4-[(2S)-3,3,3-trifluoro-2-hydroxypropyl]-4,5-dihydro-1H-1,2,4-triazol-1-yl}methyl)-1-(2-ethyl-6-methylphenyl)-1H-1,2,4-triazole-5-carboxamide]: the IC50 in assay [1] was 14.5 nM; in assay [2], 7.95 nM. Further, the “ratio IC50 hV2/hV1a” value in assay [1] was 0.5.
For the compound `NC(=O)c1nc(Cn2nc(-c3ccc(Cl)cc3)n(C[C@H](O)C(F)(F)F)c2=O)nn1-c1cccc(F)c1` [Example 32, 3-({3-(4-Chlorophenyl)-5-oxo-4-[(2S)-3,3,3-trifluoro-2-hydroxypropyl]-4,5-dihydro-1H-1,2,4-triazol-1-yl}methyl)-1-(3-fluorophenyl)-1H-1,2,4-triazole-5-carboxamide], in assay [1], the IC50 worked out at 18.3 nM and the “ratio IC50 hV2/hV1a” value amounted to 1.3. Moreover, the IC50 in assay [2] is 23.9 nM.
`NC(=O)c1nc(Cn2nc(-c3ccc(Cl)cc3)n(C[C@H](O)C(F)(F)F)c2=O)nn1-c1cccc(Cl)c1` [Example 33, 1-(3-Chlorophenyl)-3-({3-(4-chlorophenyl)-5-oxo-4-[(2S)-3,3,3-trifluoro-2-hydroxypropyl]-4,5-dihydro-1H-1,2,4-triazol-1-yl}methyl)-1H-1,2,4-triazole-5-carboxamide]: in assay [1], the IC50 turned out to be 24 nM and the “ratio IC50 hV2/hV1a” value is reported as 0.2. Moreover, the IC50 in assay [2] was determined as 4.55 nM.
In the case of `COc1ccccc1-n1nc(Cn2nc(-c3ccc(Cl)cc3)n(C[C@H](O)C(F)(F)F)c2=O)nc1C(N)=O` [Example 34, 3-({3-(4-Chlorophenyl)-5-oxo-4-[(2S)-3,3,3-trifluoro-2-hydroxypropyl]-4,5-dihydro-1H-1,2,4-triazol-1-yl}methyl)-1-(2-methoxyphenyl)-1H-1,2,4-triazole-5-carboxamide], in assay [1], the IC50 came out at 1.11 nM and the “ratio IC50 hV2/hV1a” value was found to be 6.9. In addition, the IC50 in assay [2] is 7.63 nM.
For `NC(=O)c1nc(Cn2nc(-c3ccc(Cl)cc3)n(C[C@H](O)C(F)(F)F)c2=O)nn1-c1ccccc1Cl` [Example 35, 1-(2-Chlorophenyl)-3-({3-(4-chlorophenyl)-5-oxo-4-[(2S)-3,3,3-trifluoro-2-hydroxypropyl]-4,5-dihydro-1H-1,2,4-triazol-1-yl}methyl)-1H-1,2,4-triazole-5-carboxamide] the same measures were 0.77 nM, 11.1 and 8.46 nM.
For `NC(=O)c1nc(Cn2nc(-c3ccc(Cl)cc3)n(C[C@@H](O)C(F)(F)F)c2=O)nn1-c1ccccc1Cl` [Example 36, 1-(2-Chlorophenyl)-3-({3-(4-chlorophenyl)-5-oxo-4-[(2R)-3,3,3-trifluoro-2-hydroxypropyl]-4,5-dihydro-1H-1,2,4-triazol-1-yl}methyl)-1H-1,2,4-triazole-5-carboxamide] the same measures were 3.8 nM, 23.0 and 87.5 nM.
In the case of `NC(=O)c1nc(Cn2nc(-c3ccc(Cl)cc3)n(CC(=O)C(F)(F)F)c2=O)nn1-c1ccccc1Cl` [Example 37, 1-(2-Chlorophenyl)-3-{[3-(4-chlorophenyl)-5-oxo-4-(3,3,3-trifluoro-2-oxopropyl)-4,5-dihydro-1H-1,2,4-triazol-1-yl]methyll-1H-1,2,4-triazole-5-carboxamide (ketone form) or 1-(2-Chlorophenyl)-3-{[3-(4-Chlorophenyl)-5-oxo-4-(3,3,3-trifluoro-2,2-dihydroxypropyl)-4,5-dihydro-1H-1,2,4-triazol-1-yl]methyl}-1H-1,2,4-triazole-5-carboxamide (hydrate form)], in assay [1], the IC50 was 1.37 nM and the “ratio IC50 hV2/hV1a” value was 9.9. The IC50 in assay [2] is 13.5 nM.
